Measurements from US11629146B2, “Substituted [1,2,4]triazolo[4,3-a]pyrazines as modulators of sodium channel activity” (Praxis Precision Medicines, Inc., priority 2016, dated 2023).

biological target: human NaV1.6 (hNaV1.6) (Homo sapiens (Human), UniProt Q9UQD0); test: INaL inhibition at hNaV1.6, PatchXpress electrophysiology; assay type: cell-based; conditions: 1 μM; HEK-293 cells expressing hNaV1.6; late current evoked by 300 nM ATX-II
Method: Functional characterization of exemplary compounds to modulate INaL expressed by the Nay 1.6 voltage-gated sodium channel was accomplished using the PatchXpress™ high throughput electrophysiology platform (Molecular Devices, Sunnyvale, Calif.). HEK-293 cells expressing recombinant, human NaV1.6 (hNaV1.6) were grown in DMEM/high-glucose Dulbecco's modified, 10% FBS, 2 mM sodium pyruvate, 10 mM HEPES and 400 μg/mL G418. Cells were grown to 50%-80% confluency prior to harvesting. […] The onboard liquid handling facility of the PatchXpress was used for dispensing cells and applying test compounds. Nay late currents were evoked by the application of 300 nM ATX-II. […] INaL amplitude and stability were determined by analyzing the mean current amplitude over the final 20 ms of the test pulse. […] Percent steady-state inhibition of INaL was calculated as: [(INaL_compound)/(INaL_control)]*100, where INaL_compound and INaL_control represent INaL recorded in the presence or absence of compound, respectively.

Sequence of human NaV1.6 (hNaV1.6) (Q9UQD0 whole entry): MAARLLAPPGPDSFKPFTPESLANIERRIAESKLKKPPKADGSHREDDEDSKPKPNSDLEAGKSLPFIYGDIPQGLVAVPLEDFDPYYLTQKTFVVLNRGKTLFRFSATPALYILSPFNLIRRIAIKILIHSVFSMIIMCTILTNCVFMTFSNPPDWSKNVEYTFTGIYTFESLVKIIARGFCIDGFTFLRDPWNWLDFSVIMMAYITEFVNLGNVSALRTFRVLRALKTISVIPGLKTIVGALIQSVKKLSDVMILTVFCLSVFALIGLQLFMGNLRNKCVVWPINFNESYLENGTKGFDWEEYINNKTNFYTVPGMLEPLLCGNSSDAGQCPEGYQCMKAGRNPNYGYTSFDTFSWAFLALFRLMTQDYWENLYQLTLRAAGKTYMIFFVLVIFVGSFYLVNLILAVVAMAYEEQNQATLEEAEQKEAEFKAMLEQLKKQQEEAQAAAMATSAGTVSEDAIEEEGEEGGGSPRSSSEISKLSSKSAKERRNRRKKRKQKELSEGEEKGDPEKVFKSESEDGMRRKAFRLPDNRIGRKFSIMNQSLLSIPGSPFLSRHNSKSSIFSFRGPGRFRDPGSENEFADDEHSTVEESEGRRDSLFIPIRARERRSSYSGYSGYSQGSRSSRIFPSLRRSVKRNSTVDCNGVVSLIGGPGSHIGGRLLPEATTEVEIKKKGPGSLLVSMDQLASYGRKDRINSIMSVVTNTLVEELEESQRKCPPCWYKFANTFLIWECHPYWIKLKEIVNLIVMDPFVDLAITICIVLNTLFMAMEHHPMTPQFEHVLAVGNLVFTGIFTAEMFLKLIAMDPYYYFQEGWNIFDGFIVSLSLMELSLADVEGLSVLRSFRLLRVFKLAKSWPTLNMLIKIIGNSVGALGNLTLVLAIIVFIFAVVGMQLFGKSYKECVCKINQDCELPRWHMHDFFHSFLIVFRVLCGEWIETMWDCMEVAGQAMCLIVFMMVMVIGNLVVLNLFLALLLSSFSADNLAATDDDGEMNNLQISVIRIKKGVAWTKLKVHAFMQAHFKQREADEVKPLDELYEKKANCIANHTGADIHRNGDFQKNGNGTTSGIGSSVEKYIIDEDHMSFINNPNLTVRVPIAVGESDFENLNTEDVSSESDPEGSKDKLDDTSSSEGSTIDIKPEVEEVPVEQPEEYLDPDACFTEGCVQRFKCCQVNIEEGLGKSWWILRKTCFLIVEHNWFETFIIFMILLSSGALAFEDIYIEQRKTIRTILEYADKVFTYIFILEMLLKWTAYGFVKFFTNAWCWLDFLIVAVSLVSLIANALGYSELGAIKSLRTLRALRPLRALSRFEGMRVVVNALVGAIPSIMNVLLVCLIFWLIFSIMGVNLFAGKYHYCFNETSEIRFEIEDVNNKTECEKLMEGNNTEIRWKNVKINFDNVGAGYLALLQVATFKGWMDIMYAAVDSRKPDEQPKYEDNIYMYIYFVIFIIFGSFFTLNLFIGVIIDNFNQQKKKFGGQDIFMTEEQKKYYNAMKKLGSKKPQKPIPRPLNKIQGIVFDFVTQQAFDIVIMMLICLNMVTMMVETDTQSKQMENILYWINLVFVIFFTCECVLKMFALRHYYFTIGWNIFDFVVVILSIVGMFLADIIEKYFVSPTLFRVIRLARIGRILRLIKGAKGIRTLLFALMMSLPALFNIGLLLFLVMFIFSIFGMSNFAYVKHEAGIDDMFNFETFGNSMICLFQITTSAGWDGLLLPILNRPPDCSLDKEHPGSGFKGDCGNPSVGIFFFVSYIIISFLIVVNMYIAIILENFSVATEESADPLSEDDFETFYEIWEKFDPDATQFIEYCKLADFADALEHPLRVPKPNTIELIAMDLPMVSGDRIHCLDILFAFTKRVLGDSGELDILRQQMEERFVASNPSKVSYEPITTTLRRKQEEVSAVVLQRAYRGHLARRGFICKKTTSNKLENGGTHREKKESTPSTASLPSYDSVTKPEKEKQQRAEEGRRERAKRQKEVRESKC

SMILES | INaL v1.6 (1 μM, % Inhibition)
FC(F)(F)Oc1ccc(-c2ccc3nnc(C4CC4(F)F)n3n2)cc1 (single isomer, unassigned) [Compound 46] | C (inhibition of greater than 70%)
COCc1cc(OC(F)(F)F)ccc1-c1cn2c(C(F)(F)F)nnc2cn1 [Compound 66] | C (inhibition of greater than 70%)
Fc1cc(-c2cn3c(C(F)(F)F)nnc3cn2)cnc1OC1CC(F)(F)C1 [Compound 84] | C (inhibition of greater than 70%)

same assay, conditions: HEK293, read-out: INaL v1.6 (1 μM, % Inhibition)

SMILES | inhibition at 1 µM [%]
FC(F)(F)Oc1ccc(-c2ccc3nnc(CC4CCCOC4)n3n2)cc1 (stereo not shown) [Compound 38] | 30 to 70
FC(F)(F)Oc1ccc(-c2ccc3nnc(CC4CCOCC4)n3n2)cc1 [Compound 39] | < 30
CC(C)(C#N)c1ccc(-c2cn3c(C(F)F)nnc3cn2)cc1 [Compound 57] | < 30
N#CC1(c2ccc(-c3ccc4nnc(C(F)(F)F)n4n3)cc2)CCC1 [Compound 60] | 30 to 70
Cc1nnc2cnc(-c3ccc(OC(F)(F)F)cc3)cn12 [Compound 95] | < 30
N#CC1(c2ccc(-c3ccc4nnc(C(F)(F)F)n4n3)cc2F)CC1 [Compound 104] | < 30

same assay, conditions: HEK293; 1 μM; HEK-293 cells expressing hNaV1.6; late current evoked by 300 nM ATX-II; read-out: INaL v1.6 (1 μM, % Inhibition)

SMILES | inhibition at 1 µM [%]
FC(F)(F)Oc1ccc(-c2cn3c(C[C@H]4CCCOC4)nnc3cn2)cc1 (single isomer, unassigned) [Compound 154] | < 30
FC(F)(F)Oc1ccc(-c2cn3c(C[C@@H]4CCCOC4)nnc3cn2)cc1 (single isomer, unassigned) [Compound 155] | < 30
N#Cc1cc(C(F)(F)F)ccc1-c1ccc2nnc(C(F)(F)F)n2n1 [Compound 4] | < 30
COc1cc(OC(F)(F)F)ccc1-c1ccc2nnc(C(F)(F)F)n2n1 [Compound 5] | > 70
FC(F)(F)Oc1ccc(-c2ccc3nnc(C(F)(F)F)n3n2)c(C2COC2)c1 [Compound 32] | 30 to 70
COc1cc(OC(F)(F)F)ccc1-c1ccc2nnc(C(F)(F)OC)n2n1 [Compound 33] | > 70
COc1cc(OC(F)(F)F)ccc1-c1ccc2nnc(C(F)(F)OCC3CC3)n2n1 [Compound 34] | > 70
FC(F)(F)Oc1ccc(Cl)c(-c2ccc3nnc(C(F)(F)F)n3n2)c1 [Compound 35] | < 30
Cc1ccc(OC(F)(F)F)cc1-c1ccc2nnc(C(F)(F)F)n2n1 [Compound 36] | < 30
N#Cc1ccc(OC(F)(F)F)cc1-c1ccc2nnc(C(F)(F)F)n2n1 [Compound 40] | < 30
FC(F)c1nnc2cnc(-c3ccc(OC(F)(F)F)cc3)cn12 [Compound 47] | 30 to 70
COc1cc(OC(F)(F)F)ccc1-c1cn2c(C(F)F)nnc2cn1 [Compound 48] | < 30
FC(F)c1nnc2cnc(-c3ccc(OCC(F)(F)F)nc3)cn12 [Compound 50] | 30 to 70
COC(C)(C)c1ccc(-c2cn3c(C(F)F)nnc3cn2)cc1 [Compound 51] | < 30
FC(F)(F)Oc1ccc(-c2cnc3nnc(C(F)(F)F)n3c2)cc1 [Compound 54] | < 30
FC(F)(F)Oc1ccc(-c2cnc3nncn3c2)cc1 [Compound 55] | < 30
FC(F)(F)Oc1ccc(-c2cn3c(C(F)(F)F)nnc3cn2)cc1 [Compound 56] | > 70
FC(F)(F)COc1ccc(-c2ccc3nnc(C(F)(F)F)n3n2)nc1 [Compound 58] | 30 to 70
FC(F)(F)c1ccc(-c2cn3c(C(F)(F)F)nnc3cn2)cc1 [Compound 62] | 30 to 70
COc1cc(C2(C#N)CC2)ccc1-c1cn2c(C(F)(F)F)nnc2cn1 [Compound 64] | < 30
N#CC1(c2ccc(-c3cn4c(C(F)(F)F)nnc4cn3)cc2)CC1 [Compound 67] | < 30
COc1cc(OC(F)(F)F)ccc1-c1cn2c(C(F)(F)F)nnc2cn1 [Compound 70] | 30 to 70
N#CC1(c2ccc(-c3cn4c(C(F)(F)F)nnc4cn3)cc2)CCC1 [Compound 71] | 30 to 70
CCOc1ccc(-c2cn3c(C(F)(F)F)nnc3cn2)cc1 [Compound 74] | < 30
CC(C)c1nnc2cnc(-c3ccc(OC(F)(F)F)cc3)cn12 [Compound 75] | < 30

SMILES | inhibition at 1 µM [%]
Fc1cc(C(F)(F)F)ccc1-c1cn2c(C(F)(F)F)nnc2cn1 [Compound 76] | 30 to 70
Fc1cc(-c2cn3c(C(F)(F)F)nnc3cn2)ccc1OC(F)(F)F [Compound 79] | > 70
FC(F)(F)Oc1ccc(-c2cn3c(C4CC4)nnc3cn2)cc1 [Compound 80] | 30 to 70
FC1(F)CC(c2nnc3cnc(-c4ccc(OC(F)(F)F)cc4)cn23)C1 [Compound 82] | 30 to 70
Fc1cc(-c2ccc3nnc(C4CC(F)(F)C4)n3n2)cnc1OCC(F)(F)F [Compound 83] | 30 to 70
Fc1cc(-c2ccc3nnc(C(F)F)n3n2)cnc1OCC(F)(F)F [Compound 85] | < 30
FC1(F)CC(Oc2ccc(-c3cn4c(C(F)(F)F)nnc4cn3)cn2)C1 [Compound 86] | 30 to 70
Fc1cc(-c2ccc3nnc(C4(F)CC4)n3n2)cnc1OCC(F)(F)F [Compound 88] | 30 to 70
COc1cc(C(F)(F)F)ccc1-c1ccc2nnc(C(F)(F)F)n2n1 [Compound 89] | > 70
Fc1cc(-c2ccc3nnc(C(F)(F)F)n3n2)cnc1OC1CC(F)(F)C1 [Compound 93] | > 70
Cc1cc(OC2CC(F)(F)C2)ccc1-c1ccc2nnc(C(F)(F)F)n2n1 [Compound 94] | 30 to 70
COC(F)(F)c1nnc2cnc(-c3ccc(OC(F)(F)F)cc3)cn12 [Compound 97] | > 70
Cc1cc(-c2ccc3nnc(C(F)(F)F)n3n2)ccc1C(F)(F)F [Compound 98] | > 70
Fc1cc(-c2ccc3nnc(C(F)(F)F)n3n2)cnc1C(F)(F)F [Compound 99] | < 30
Fc1cc(-c2ccc3nnc(C(F)(F)F)n3n2)ccc1OC1CC(F)(F)C1 [Compound 100] | 30 to 70
FC(F)OCc1cc(OC(F)(F)F)ccc1-c1ccc2nnc(C(F)(F)F)n2n1 [Compound 101] | 30 to 70
CC(C)(O)c1ccc(-c2ccc3nnc(C(F)(F)F)n3n2)cc1 [Compound 102] | < 30
Fc1cc(-c2ccc3nnc(C4CC4)n3n2)cnc1OCC(F)(F)F [Compound 103] | 30 to 70
COC(F)(F)c1nnc2ccc(-c3ccc(C(F)(F)F)cc3C)nn12 [Compound 111] | > 70
O=C(Cc1nnc2cnc(-c3ccc(OC(F)(F)F)cc3)cn12)N1CCCC1 [Compound 114] | 30 to 70
OCc1cc(-c2ccc3nnc(C(F)(F)F)n3n2)ccc1OC(F)(F)F [Compound 115, [2-(trifluoromethoxy)-5-[3-(trifluoromethyl)-[1,2,4]triazolo[4,3-b]pyridazin-6-yl]phenyl]methanol] | 30 to 70
FC(F)Oc1ccc(-c2ccc3nnc(C(F)(F)F)n3n2)cc1 [Compound 116] | > 70
FC(F)(F)OCc1ccc(-c2ccc3nnc(C(F)(F)F)n3n2)cc1 [Compound 118] | > 70
FCCc1nnc2cnc(-c3ccc(OC(F)(F)F)cc3)cn12 [Compound 119] | < 30
